Experiment [1] addresses T1, recombinant RORγ Ligand Binding Domain (LBD) protein (Homo sapiens, UniProt P51449).
T1 construct: 6×His; GST
T1 sequence (P51449 269-508 limits assumed): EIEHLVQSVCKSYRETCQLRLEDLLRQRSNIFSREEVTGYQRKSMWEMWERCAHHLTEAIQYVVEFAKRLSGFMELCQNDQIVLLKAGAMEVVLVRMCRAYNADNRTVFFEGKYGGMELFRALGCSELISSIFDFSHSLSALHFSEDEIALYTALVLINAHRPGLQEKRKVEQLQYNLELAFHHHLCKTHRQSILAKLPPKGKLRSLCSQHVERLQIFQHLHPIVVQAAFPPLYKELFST
The experiment in a line: Radio-Ligand RORγ Binding Assay (Assay 1). The settings on record: radio-ligand competition, RORγ LBD, read-out: Avg ROR Bind Ki. An outline of the steps:
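Cell-free SPA competition between compound and 25-hydroxy[26,27-^3H]-cholesterol for 6×His-GST-tagged RORγ LBD in 50 mM HEPES pH 7.4 with NaCl, MgCl2, glycerol, CHAPS, octylglucoside and DTT. Mix was shaken 20 min, held 10 min at rt, then read after poly-Lys YSi beads. IC50 came from a four-parameter fit, and Ki from radioligand KD.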

The target in experiment [2] is T2, full-length RORγt in Jurkat cells (Homo sapiens, UniProt P51449).
T2 construct: transcriptional activity of the full-length RORγt in Jurkat cells; host or cells: Jurkat cells (ATCC TIB-152)
T2 sequence (P51449 1-497 isoform P51449-2): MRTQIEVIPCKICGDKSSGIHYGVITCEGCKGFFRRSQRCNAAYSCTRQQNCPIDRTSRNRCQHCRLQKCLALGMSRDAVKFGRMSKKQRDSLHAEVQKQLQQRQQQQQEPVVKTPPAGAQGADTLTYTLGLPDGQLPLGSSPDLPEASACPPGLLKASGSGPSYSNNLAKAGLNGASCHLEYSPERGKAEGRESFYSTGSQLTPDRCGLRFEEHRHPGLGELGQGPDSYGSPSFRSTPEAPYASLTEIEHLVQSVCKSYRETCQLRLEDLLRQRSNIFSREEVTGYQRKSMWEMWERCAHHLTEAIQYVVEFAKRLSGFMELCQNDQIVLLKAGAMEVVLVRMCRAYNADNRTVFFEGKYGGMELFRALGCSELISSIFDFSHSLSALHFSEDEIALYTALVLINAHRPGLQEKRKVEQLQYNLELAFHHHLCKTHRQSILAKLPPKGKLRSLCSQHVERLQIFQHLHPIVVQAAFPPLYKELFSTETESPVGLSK
Kind of experiment: RORγt 5×RORE Assay in Jurkat Cells (Assay 2). Type of experiment: cell-based. To be noted: 5×RORE luciferase reporter. On the procedure:
[formula] RORγt 5×RORE Assay in Jurkat Cells (Assay 2)
Compounds described herein were tested for RORγ inverse agonist activity in a cell-based, transcriptional activity assay. Secreted Nanoluc″ luciferase was used as a reporter for transcriptional activity of the full-length RORγt in Jurkat cells (ATCC, Cat. #TIB-152). A reporter plasmid was constructed by inserting 5 repeats of the ROR Response Element (RORE) […] (SEQ ID NO: 1) into a commercially available promoterless plasmid pNL1.3[secNluc] (Promega, Cat. #N1021) using KpnI and HindIII restriction sites. The expression plasmid for RORγt was purchased (Geneocopoeia, Cat. #EX-T6988-M02). Jurkat cells (30 million cells) were transfected with 11 μg of EX-T6988-MO2 and 26 μg of the reporter plasmid in OptiMEM® media using Lipofectamine LTX and Plus™ reagents (Life Technologies, Cat. #15338-100). After 5-6 hrs of incubation at 37° C./5% CO2, the cells were collected, resuspended in phenol-red free RPMI media containing 10% (v/v) delipidated FBS (Hyclone, Cat. #SH30855.03) and dispensed into 96-well clear bottom tissue culture plates (CoStar, Cat. #3603), at 80,000 cells per well. Tested compounds were added to the cells in the same media (final concentration of DMSO was 0.1% (v/v)), and the plates were incubated at 37° C./5% CO2 for 16-18 hrs. Luciferase activity in the conditioned supernatants was determined with NanoGlo® assay reagents (Promega, Cat. #N1130).
On the technique in general: A reporter such as luciferase makes a cellular process visible.

Setting [3] is: head without unit (Tables 15, 17).
The mark [4] stands for this setting: head without unit (Tables 15, 17), read-out: Avg ROR γt/5x IC50.
The mark [5] stands for this setting: 25-hydroxy [26,27-3H]-cholesterol.
[6] abbreviates: Table 20, read-out: Avg ROR γt/5x IC5.

Structures are written as SMILES. Read-outs that look alike come from different tables or passages of the source. A value given as a limit tells only on which side of the number the result lay.

For `CCS(=O)(=O)c1ccc(CNC(=O)c2cnc3c(c2)CCN(Cc2ccc(Cl)cc2)C3C(C)C)cc1` (single isomer, unassigned) [Hy2B-8.1], the Ki in experiment [1] (setting [3]) was < 0.1 µM. The IC50 in experiment [2] (setting [4]) was in the range of 0.1 to 1 µM.
Take `CCS(=O)(=O)c1ccc(CNC(=O)c2ccc3c(C4CC4)n(C[C@H]4CC[C@H](C(F)(F)F)CC4)nc3c2)nc1` [Hy3A-3, 3-cyclopropyl-N-((5-(ethylsulfonyl)pyridin-2-yl)methyl)-2-(((1r,4r)-4-(trifluoromethyl)cyclohexyl)methyl)-2H-indazole-6-carboxamide]: in experiment [1] (setting [5]), the Ki was < 0.1 µM. For the same compound, the IC50 in experiment [2] (read-out: Avg ROR γt/5x IC50) is < 0.1 µM.
With `CCS(=O)(=O)c1ccc(CNC(=O)c2ccc3c(c2)CN(c2ncc(-c4ccc(=O)[nH]c4)cn2)C[C@H]3C(C)C)cc1` (single isomer, unassigned) [Hy7-21.1], the Ki in experiment [1] (setting [5]) is < 0.1 µM. Besides, the IC50 in experiment [2] (setting [6]) lay within 0.1 to 1 µM.
`CCS(=O)(=O)c1ccc(CNC(=O)c2ccc3c(c2)CN(c2ncc(Cl)cn2)C[C@@H]3C(C)C)cc1` (single isomer, unassigned) [Hy7-3.2]: in experiment [1] (setting [5]), the Ki is < 0.1 µM. Also, in experiment [2] (setting [6]), the IC50 was > 1 µM.
For `CCS(=O)(=O)c1ccc(CNC(=O)c2ccc3c(c2)CCN(Cc2ccc(C#N)cc2)C3C(C)C)cc1` (racemic) [Hy2A-14, 2-(4-cyanobenzyl)-N-(4-(ethylsulfonyl)benzyl)-1-isopropyl-1,2,3,4-tetrahydroisoquinoline-6-carboxamide], in experiment [1] (setting [5]), the Ki is < 0.1 µM. The IC50 in experiment [2] (read-out: Avg ROR γt/5x IC50) was < 0.1 µM.
Consider `CCS(=O)(=O)c1ccc(CNC(=O)c2ccc3c(c2)CCN(Cc2ccc(Cl)cn2)C3C(C)C)cc1` (racemic) [Hy2A-21, 2-((5-chloropyridin-2-yl)methyl)-N-(4-(ethylsulfonyl)benzyl)-1-isopropyl-1,2,3,4-tetrahydroisoquinoline-6-carboxamide], for which the Ki in experiment [1] (setting [5]) was < 0.1 µM. Moreover, the IC50 in experiment [2] (read-out: Avg ROR γt/5x IC50) was < 0.1 µM.
Regarding `CC[C@H]1CN(c2ccc(C(F)(F)F)cn2)Cc2cc(C(=O)NCc3ccc(S(=O)(=O)CC)cc3)ccc21` (single isomer, unassigned) [Hy7-8.2], the inhibitory constant (Ki) in experiment [1] (setting [5]) is < 0.1 µM. The IC50 in experiment [2] (setting [6]) is 0.1 to 1 µM.
As to `CC[C@@H]1CN(c2ncc(Cl)cn2)Cc2cc(C(=O)N[C@@H](CO)c3ccc(S(=O)(=O)CC)cc3)ccc21` (single isomer, unassigned) [Hy7-6.1], the Ki in experiment [1] (setting [5]) is < 0.1 µM. Besides, the IC50 in experiment [2] (setting [6]) was > 1 µM.
For the compound `CCS(=O)(=O)c1ccc([C@H](CO)NC(=O)c2ccc3c(COc4ccc(C(F)(F)F)cc4)nccc3c2)cc1` [Hy1A-24, (R)-N-(1-(4-(ethylsulfonyl)phenyl)-2-hydroxyethyl)-1-((4-(trifluoromethyl)phenoxy)methyl)isoquinoline-6-carboxamide], in experiment [1] (setting [5]), the Ki is < 0.1 µM. Besides, in experiment [2] (read-out: Avg ROR γt/5x IC50), the IC50 was 0.1 to 1 µM.
Consider `CCS(=O)(=O)c1ccc(CNC(=O)c2ccc3c(c2)C(C)(C)CN(Cc2ccc(C#N)cc2)C3C(C)C)cc1` (single isomer, unassigned) [Hy2A-23.2], for which the Ki in experiment [1] (setting [5]) was < 0.1 µM. For the same compound, in experiment [2] (read-out: Avg ROR γt/5x IC50), the IC50 is 0.1 to 1 µM.
In the same order, the values of `CCS(=O)(=O)c1ccc(CNC(=O)c2ccc3c(OCc4ccc(C(F)(F)F)cc4)nccc3c2)cc1` [Hy1A-4, N-(4-(ethylsulfonyl)benzyl)-1-((4-(trifluoromethyl)benzyl)oxy)isoquinoline-6-carboxamide] are < 0.1 µM and 0.1 to 1 µM.
Turning to `CC[C@H]1CN(c2ncc(C(F)(F)F)cc2C)Cc2cc(C(=O)N[C@@H](CO)c3ccc(S(=O)(=O)CC)cc3)ccc21` (single isomer, unassigned) [Hy7-22.2], the Ki in experiment [1] (setting [5]) is < 0.1 µM. Also, the IC50 in experiment [2] (setting [6]) lay within 0.1 to 1 µM.
With `CCS(=O)(=O)c1ccc(CNC(=O)c2ccc3c(c2)CN(Cc2ccc(Cl)cc2)C[C@H]3C(C)C)cc1` (single isomer, unassigned) [Hy7-29.1], the Ki in experiment [1] (setting [5]) is < 0.1 µM. Also, the IC50 in experiment [2] (setting [6]) is > 1 µM.
As for `CCS(=O)(=O)c1ccc([C@H](CO)NC(=O)c2ccc3c(C4CC4)n(C[C@H]4CC[C@H](C(F)(F)F)CC4)nc3c2)nc1` [Hy3A-6, 3-cyclopropyl-N-((R)-1-(5-(ethylsulfonyl)pyridin-2-yl)-2-hydroxyethyl)-2-(((1r,4R)-4-(trifluoromethyl)cyclohexyl)methyl)-2H-indazole-6-carboxamide], the Ki in experiment [1] (setting [5]) was < 0.1 µM. Also, the IC50 in experiment [2] (read-out: Avg ROR γt/5x IC50) is < 0.1 µM.
In the case of `CC[C@H]1CN(c2ncc(C(F)(F)F)cc2C)Cc2cc(C(=O)NCc3ccc(S(=O)(=O)CC)cc3)ccc21` (single isomer, unassigned) [Hy7-13.2], the Ki in experiment [1] (setting [5]) is < 0.1 µM. Moreover, in experiment [2] (setting [6]), the IC50 fell in the range of 0.1 to 1 µM.
Consider `CC[C@@H]1CN(c2ncc(C(F)(F)F)cc2C#N)Cc2cc(C(=O)N[C@@H](CO)c3ccc(S(=O)(=O)CC)cc3)ccc21` (single isomer, unassigned) [Hy7-37.1], for which the Ki in experiment [1] (setting [5]) was < 0.1 µM. Besides, the IC50 in experiment [2] (setting [6]) was < 0.1 µM.
`CCS(=O)(=O)c1ccc([C@H](CO)NC(=O)c2ccc3c(OCC4CC(F)(F)C4)nc(C)cc3c2)cc1` [Hy1A-12, (R)-1-((3,3-difluorocyclobutyl)methoxy)-N-(1-(4-(ethylsulfonyl)phenyl)-2-hydroxyethyl)-3-methylisoquinoline-6-carboxamide]: the Ki in experiment [1] (setting [5]) was < 0.1 µM. Also, the IC50 in experiment [2] (read-out: Avg ROR γt/5x IC50) was > 1 µM.
In the case of `CCc1cc2cc(C(=O)NCc3ccc(S(=O)(=O)CC)cc3)ccc2c(OC[C@H]2CC[C@H](C(F)(F)F)CC2)n1` [Hy1A-20, 3-ethyl-N-(4-(ethylsulfonyl)benzyl)-1-(((1r,4r)-4-(trifluoromethyl)cyclohexyl)methoxy)isoquinoline-6-carboxamide], the inhibition constant Ki in experiment [1] (setting [5]) is < 0.1 µM. In experiment [2] (read-out: Avg ROR γt/5x IC50), the IC50 is < 0.1 µM.
Take `CC[C@@H]1CN(c2ncc(C(F)(F)F)cc2C)Cc2cc(C(=O)NCc3ccc(S(=O)(=O)CC)cc3)ccc21` (single isomer, unassigned) [Hy7-13.1]: the Ki in experiment [1] (setting [5]) is < 0.1 µM. Moreover, the IC50 in experiment [2] (setting [6]) is < 0.1 µM.
As to `CCS(=O)(=O)c1ccc(CNC(=O)c2cc3ccnc(OCc4ccc(C(F)(F)F)cc4)c3n2C)cc1` [Hy4-3, N-(4-(ethylsulfonyl)benzyl)-1-methyl-7-((4-(trifluoromethyl)benzyl)oxy)-1H-pyrrolo[2,3-c]pyridine-2-carboxamide], the Ki in experiment [1] (setting [3]) is < 0.1 µM. In addition, in experiment [2] (setting [4]), the IC50 was 0.1 to 1 µM.
For `CCS(=O)(=O)c1ccc([C@H](CO)NC(=O)c2ccc3c(OCc4ccc(F)cc4)nc(C)cc3c2)cc1` [Hy1A-13, (R)-N-(1-(4-(ethylsulfonyl)phenyl)-2-hydroxyethyl)-1-((4-fluorobenzyl)oxy)-3-methylisoquinoline-6-carboxamide], the Ki in experiment [1] (setting [5]) was < 0.1 µM. Moreover, the IC50 in experiment [2] (read-out: Avg ROR γt/5x IC50) lay within 0.1 to 1 µM.
For `CCS(=O)(=O)c1ccc(CNC(=O)c2ccc3c(c2)CN(c2ncc(-c4ccnc(OC)c4)cn2)C[C@H]3C(C)C)cc1` (single isomer, unassigned) [Hy7-23.1], the Ki in experiment [1] (setting [5]) is < 0.1 µM. Moreover, the IC50 in experiment [2] (setting [6]) was < 0.1 µM.
For the compound `CCS(=O)(=O)c1ccc(CNC(=O)c2ccc3c(c2)CN(c2ncc(C#N)cn2)C[C@H]3C(C)C)cc1` (single isomer, unassigned) [Hy7-2.1], the Ki in experiment [1] (setting [5]) was < 0.1 µM. The IC50 in experiment [2] (setting [6]) lay within 0.1 to 1 µM.
As to `CCS(=O)(=O)c1ccc(CNC(=O)c2ccc3c(c2)CN(c2ncc(-c4ccn(C)c(=O)c4)cn2)C[C@H]3C(C)C)cc1` (single isomer, unassigned) [Hy7-25.1], the Ki in experiment [1] (setting [5]) was < 0.1 µM. Also, the IC50 in experiment [2] (setting [6]) lay within 0.1 to 1 µM.

The Ki is the equilibrium dissociation constant of an inhibitor or competing ligand from its target.
